What all share (assay): inhibition of tumour cell growth, NCI panel, 48 h
For test [1], the system named is DU-145 prostate.
For test [2], the system named is HCT-116 colon.
Test [3] relates to IGROV1 ovarian.
The subject of test [4] is NCI-H23 lung.
For test [5], the system named is NCI-H460 lung.
Test [6] has as its system NCI/ADR-RES ovarian.
Test [7] has as its system SK-MEL-28 melanoma.
For test [8], the system named is SK-OV-3 ovarian.

SMILES strings stand for the structures.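 All cell lines were grown in 96-well plates and treated with compound for 48 hours. Abbreviation: GI50, concentration required for 50% inhibition of growth. TGI: total growth inhibition.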

`COc1cc2c3c(n(CCCN4CCC(N)CC4)c(=O)c2cc1OC)-c1cc2c(cc1C3=O)OCO2`: the GI50 in test [1] was 0.14 µM; in test [2], 0.119 µM; in test [3], 1.7 µM; in test [4], 0.475 µM; in test [5], 0.184 µM; in test [6] it was 2.93 µM. In addition, the GI50 in test [7] was 0.983 µM; in test [8], 3.47 µM. In addition, the TGI in test [1] was 0.803 µM; in test [2] it was 0.807 µM; in test [3] it was 16 µM; in test [4], 1.6 µM; in test [5] it was 0.858 µM; in test [6] it was 20.8 µM. For the same compound, the TGI came out at 2.9 µM in test [7] and 13.2 µM in test [8].
Turning to `CCN(CCO)CCNc1ccc(C)c2sc3cc(Cl)ccc3c(=O)c12`, the GI50 in test [1] is 1.57 µM; in test [2], 1.34 µM; in test [3], 1.64 µM; in test [4], 1.63 µM; in test [5] it was 1.41 µM; in test [6], 1.49 µM. For the same compound, the GI50 is 1.64 µM in test [7] and 1.61 µM in test [8]. Further, the TGI in test [1] was found to be 2.94 µM; in test [2] it was 2.72 µM; in test [3], 3.39 µM; in test [4], 3.45 µM; in test [5], 3.03 µM; in test [6], 3.11 µM. The figures for the TGI in test [7] and in test [8] were 3.23 µM and 3.09 µM, respectively.
In the case of `CCCCCC(=O)Oc1ccc(/C(=C(\C)c2ccc(OC)cc2)c2ccc(OCCN3CCCCC3)cc2)cc1`, the GI50 in test [1] was 13.5 µM; in test [2], 7.36 µM; in test [3] it was 10.4 µM; in test [4], 10.1 µM; in test [5] it was 4.42 µM; in test [6], 11 µM. Moreover, the GI50 in test [7] was 3.6 µM; in test [8] it was 10.6 µM. For the same compound, the TGI is 26.6 µM in test [1]; 20.5 µM in test [2]; 25.9 µM in test [3]; 23.8 µM in test [4]; 15.8 µM in test [5]; 26.1 µM in test [6]. Besides, the TGI stood at 12.8 µM in test [7] and 22.7 µM in test [8].
`Cc1c(-c2nc(N)nc(C3CC3)c2C)nc(N)nc1C1CC1`: the TGI in test [1], in test [2], in test [3], in test [4], in test [5] and in test [6] was over 100 µM each time. For the same compound, the TGI in test [7] and in test [8] was over 100 µM throughout.
Take `CNC(=O)c1ccc(-c2cnc3ncc(Cc4ccc5ncccc5c4)n3n2)cc1F`: the GI50 in test [1], in test [2], in test [3], in test [4], in test [5] and in test [6] was over 100 µM throughout. Further, the GI50 in test [7] and in test [8] was over 100 µM each time. The TGI in test [1], in test [2], in test [3], in test [4], in test [5] and in test [6] was over 100 µM throughout. Besides, the TGI in test [7] and in test [8] was over 100 µM throughout.
For `O=C(Nc1cc(-c2ccccc2)[nH]n1)c1ccc(Cl)cc1`, the GI50 in test [1] was 6.96 µM; in test [2], 9.22 µM; in test [3], 3.04 µM; in test [4], over 100 µM; in test [5] it was 3.58 µM; in test [6], over 100 µM. In addition, the results for the GI50 in test [7] and in test [8] were over 100 µM and 3.67 µM, respectively. Besides, the TGI in test [1], in test [2], in test [3], in test [4], in test [5] and in test [6] was over 100 µM throughout. Moreover, the TGI in test [7] and in test [8] was over 100 µM each time.
As to `C=CCOc1c(Br)cc(Br)cc1Br`, the GI50 was 58.5 µM in test [1]; 11.4 µM in test [2]; 5.26 µM in test [3]; 10.1 µM in test [4]; 8.21 µM in test [5]; 17.3 µM in test [6]. The GI50 in test [7] was 75.5 µM; in test [8] it was 55.5 µM. Moreover, the TGI in test [1] was over 100 µM; in test [2], 66.2 µM; in test [3], 67.1 µM; in test [4], over 100 µM; in test [5] it was over 100 µM; in test [6] it was over 100 µM. Moreover, the TGI in test [7] and in test [8] was over 100 µM throughout.
